Data set [1] can be described thus: In vitro incubation of euphorbiasteroid with rat liver microsomes, metabolite detection. Conditions: 37 °C, 1 h, NADPH regenerating system. The format is in vitro ADME. As for the experimental part: The microsomal incubation approach was based on previous metabolism studies published by Wintermeyer et al. and Franziska et al.. A 200 μL incubation system containing 10 μL of solution A, 2 μL of solution B, 5 μL of rat liver microsomes (20 mg/mL) and 182 μL 0.1 M PBS buffer (pH = 7.4) was constructed. The above solution was heated in a 37 °C water bath, then 1 μL of euphorbiasteroid (dissolved in DMSO solution, 10 mM) was used to start the reaction, and the mixture was then incubated at 37 °C for 1 h. The reactions were terminated by the addition of 200 μL of ice-cold acetonitrile. The mixture was then centrifuged at 13,000 rpm for 10 min, and a 2-μL aliquot of the supernatant was directly injected into the UPLC-Q-TOF-MS system.
(§1) First, the metabolites of euphorbiasteroid in rats (plasma, urine, and feces), RLMs, and C. elegans culture medium were predicted by setting the prototype components and potential biological metabolic reactions in UNIFI 4.1 software. Then, the predicted metabolites in each sample were further compared according to the characteristic mass spectrum behaviors (including parent ions, internal cleavage in the ion source, and characteristic fragment ions of each metabolite) and retention times.
On the technique in general: Microsomes from liver hold many membrane-bound enzymes, among them those of drug oxidation.

Data set [2] deals with AC-16 cells. Briefly: CCK-8 cell cytotoxicity assay, AC-16. The format is cell-based. The following applies: Homo sapiens, read-out: IC50 (μM) AC-16. As for the experimental part:
(§2) Cell cytotoxicity was determined by the CCK-8 assay. Four strains of human cells (SH-SY5Y) were seeded in 96-well plates at a density of 3 × 10^3 cells/well under 37 °C and 5% CO2 for 12 h and subsequently treated with the test sample solution (euphorbiasteroid and its metabolites, 10 μL) for 72 h. After treatment, each well with 10 μL CCK-8 reagent was incubated for 1–2 h in the incubator. Afterwards, the optical OD-value was measured at 450 nm through a microplate reader. Three multiple wells were set as parallel experimental groups.
(§3) Euphorbiasteroid and its metabolites were tested for their cytotoxicity on human cell lines SH-SY5Y, LO2, AC-16, and HK-2 by the CCK-8 assay. […] Therefore, considering the high content of euphorbiasteroid in Euphorbiae semen, it was speculated that the metabolites from hydroxylation and hydrolysis might be the potential toxic constituents of Euphorbiae semen.
(Tetrazolium assays rely on reduction of a dye to a coloured formazan, in cell work by metabolically active cells.)

Data set [3] has as its system HK-2 cells. Kind of data set: CCK-8 cell cytotoxicity assay, HK-2. Format: cell-based. The following applies: Homo sapiens, read-out: IC50 (μM) HK-2. As for the experimental part:
as §2, §3

Data set [4] deals with SH-SY5Y neuroblastoma cells. Kind of data set: CCK-8 cell cytotoxicity assay, SH-SY5Y. The format is cell-based. Conditions: Homo sapiens, read-out: IC50 (μM) SH-SY5Y. As for the experimental part: as §2, §3
Data set [5] in a line: Metabolite detection in rats (plasma, urine, feces) after oral euphorbiasteroid by UPLC-Q/TOF-MS. The format is in vivo, Sprague-Dawley rats. Conditions: single oral dose 100 mg/kg euphorbiasteroid. The protocol:
For metabolite separation and detection, chromatographic analyses were performed using a Waters Acquity UPLC I-class system (Waters, Milford, MA, USA), equipped with an auto-sampler, a binary solvent delivery system, an online degasser, and a photodiode array detector. An ACQUITY UPLC® HSS T3 column (2.1 × 150 mm, 1.8 μm, Waters) protected with a HSS T3 VanGuard ™ Pre-Column 3/Pk (2.1 × 5.0 mm, 1.8 μm, Waters) was used. The optimized parameters were set as follows: the mobile phase consisted of eluent A (0.1% formic acid in water, v/v) and eluent B (acetonitrile). The flow rate was 0.3 mL/min. The column and auto-sampler temperatures were maintained at 40 °C and 4 °C, respectively. The gradient elution program was optimized as follows: 0–9 min, 30–70% B; 9–13 min, 70–90% B; 13–17 min, 90–100% B; 17–20 min, 100–100% B.
The mass spectrometry detection was performed on the SYNAPT G2-Si HDMS system, equipped with an electrospray ionization (ESI) source (Waters Corp., Manchester, UK). A positive ion mode was conducted in this analysis. Mass spectrometry conditions were finally set as follows: capillary voltage of 3.0 kV, cone voltage of 40 V, source temperature of 120 °C, and de-solvation temperature of 400 °C. Nitrogen was used as the desolvation and cone gas with a flow rate of 800 and 50 L/h, respectively, and the full-scan mass range was set as m/z 50–1500 Da. In the auto mass spectrometry mode, the collision-induced dissociation energies were set at 0 eV for the precursor ion at the low-energy mode, and the collision-induced dissociation energies were set from 2 to 10 eV for the high-energy mode. Real-time data were calibrated using an external reference (LockSpray™) at a concentration of 0.2 ng/mL with an infusion flow rate of 5 μL/min, generating a reference ion for the positive ion mode (m/z 556.2771) during the UPLC-MS analysis. Data were acquired and processed using MassLynx ™ NT 4.1 software (Waters, Milford, MA, USA).
Male Sprague-Dawley rats (200–220 g) were commercially supplied by Shanghai Sippr-BK Laboratory Animal Co., Ltd. (Shanghai, China) and were housed in a humidity- and temperature-controlled room (50 ± 10% and 22–24 °C) with a 12-h light/dark cycle. The experimental rats were allowed to access food and water ad libitum and acclimatized to the conditions mentioned above for a week, then fasted overnight but with free access to water before the experiments. Euphorbiasteroid was dissolved in soybean oil solution (containing 0.5% ethanol) to form a concentration of 10 mg/mL. A single dose of 100 mg/kg euphorbiasteroid was orally administered to rats and the same concentration of soybean oil solution (containing 0.5% ethanol) was administered as a blank control. All animal procedures were performed in accordance with the Guidelines for Care and Use of Laboratory Animals of Naval Medical University and approved by the Animal Ethics Committee of Naval Medical University.
Blood samples (0.5 mL) were collected from six rats through the orbital sinus before administration (blank sample) and 0.25, 0.5, 1, 2, 4, 6, and 12 h after administration. Plasma samples were prepared by centrifugation at 4000 rpm for 10 min. For urine and feces sampling, 12 rats were divided into an administration group and a blank group, and were placed separately in stainless steel metabolic cages. Urine and feces samples were collected in containers surrounded by ice over 0–6, 6–12, and 12–24 h after drug administration. The mixed urine samples were centrifuged at 4000 rpm for 10 min at 4 °C to obtain the supernatants, and fecal samples were left in a cool and dry place until dry. All the biological samples were frozen at −80 °C before analysis.
An aliquot of 200 µL of plasma and urine samples was put in a 1.5 mL tube, respectively. 800 µL of acetonitrile was added and vortexed for 5 min to extract metabolites. Feces samples (1.0 g) were crushed and then ultrasonically extracted with acetonitrile (10 mL) for 30 min. […]

The test system of data set [6] is LO2 cells. Kind of data set: CCK-8 cell cytotoxicity assay, LO2. The format is cell-based. The following applies: Homo sapiens, read-out: IC50 (μM) LO2. The protocol: as §2, §3
In data set [7] the test system is Cunninghamella elegans bio-110930. Briefly: Microbial transformation of euphorbiasteroid, metabolite detection. The following applies: C. elegans bio-110930 culture with euphorbiasteroid. As for the experimental part:
The biotransformation process was conducted at two scales: preliminary screening and preparative. Preliminary screening scale biotransformation of euphorbiasteroid was carried out in 250 mL Erlenmeyer flasks containing 100 mL of liquid medium. The flasks were placed on a rotary shaker (160 rpm, 28 °C). A standard two-stage fermentation protocol was employed in all experiments. After 2 days of pre-culture, the substrates of 5 mg (dissolved in 0.5 mL of acetone) were added into each flask. Taking 1 mL samples on days 0, 2, 4, 7, 10, and 14, samples were centrifuged and the degree of transformation was compared to controls on TLC and HPLC, and a 2-μL aliquot of the supernatant was directly injected into the UPLC-Q-TOF-MS system. Culture controls consisted of sterile medium, in which microorganisms were grown under identical conditions without substrate. Substrate controls were composed of sterile medium and the same amount of substrate incubated under the same conditions without microorganisms.
as §1

Data set [8] concerns human cell lines SH-SY5Y, LO2, AC-16, and HK-2. Briefly: CCK-8 cytotoxicity, summary over four human cell lines. Format: cell-based. The following applies: span over SH-SY5Y, LO2, AC-16, HK-2 (and over the named metabolites), read-out: IC50 values against four human cell lines. The protocol: as §2, §3

We go through four compounds from PMC9504842, “Comprehensive Metabolic Profiling of Euphorbiasteroid in Rats by Integrating UPLC-Q/TOF-MS and NMR as Well as Microbial Biotransformation” (Metabolites, 2022).

Molecules are shown by their SMILES. Where two headings read alike, the source gives them in different places.

In the case of `CC(=O)OC1C2C(OC(=O)Cc3ccccc3)C(C)CC2(O)C(=O)C(C)=CC2C(CCC13CO3)C2(C)C` (stereo not drawn) [Compound M25, 15-deacetyl euphorbiasteroid], the “Distribution RLMs (metabolite detected)” value in data set [1] is “√”. The IC50 (commonly the concentration needed to halve the response being measured) in data set [2] (72 h) came to 3.6 ± 0.04 µM; in data set [3] (HK-2, 72 h), 16.1 ± 0.18 µM; in data set [4] (72 h), 33.3 ± 0.36 µM; in data set [6] (L02, 72 h), 30.1 ± 0.33 µM. Further, the “Distribution Rat Faeces (metabolite detected)” value (“Distribution Rat Faeces” for short) in data set [5] is on record as “√”. Also, the “Distribution Rat Plasma (metabolite detected)” value (“Distribution Rat Plasma” below) in data set [5] was “√”. Besides, the “Distribution Rat Urine (metabolite detected)” value (shortened to “Distribution Rat Urine”) in data set [5] is reported as “√”.
On to `CC(=O)OC1C2C(OC(=O)Cc3ccccc3)C(C)CC2(OC(C)=O)C(=O)C(CO)=CC2C(CCC13CO3)C2(C)C` (stereo not drawn) [Compound M3, 20-hydroxyl euphorbiasteroid], for which the “Distribution Fungi (metabolite detected)” value in data set [7] is listed as “√”. In data set [1], the “Distribution RLMs (metabolite detected)” value is given as “√”. Also, the IC50 in data set [2] (72 h) is 17.9 ± 0.19 µM; in data set [3] (HK-2, 72 h) it was 22.7 ± 0.25 µM; in data set [4] (72 h), 39.6 ± 0.43 µM; in data set [6] (L02, 72 h) it was 37.4 ± 0.41 µM. Further, the “Distribution Rat Faeces” value in data set [5] was “√”. Further, the “Distribution Rat Plasma” value in data set [5] is recorded as “√”. Further, the “Distribution Rat Urine” value in data set [5] was “√”.
For the compound `CC1=CC2C(CCC3(CO3)C(O)C3C(O)C(C)CC3(O)C1=O)C2(C)C` (stereo not drawn) [Compound M24, epoxylathyrol], the “Distribution RLMs (metabolite detected)” value in data set [1] was “√”. For the same compound, the IC50 is 21.7 ± 0.24 µM in data set [2] (CCK-8, 72 h treatment); 26.5 ± 0.29 µM in data set [3] (HK-2, CCK-8, 72 h treatment); 40.7 ± 0.44 µM in data set [4] (CCK-8, 72 h treatment); 3.6 to 40.7 µM in data set [8]; 38.9 ± 0.42 µM in data set [6] (L02, CCK-8, 72 h treatment). In data set [5], the “Distribution Rat Faeces” value is recorded as “√”. For the same compound, the “Distribution Rat Plasma” value in data set [5] is reported as “√”. For the same compound, in data set [5], the “Distribution Rat Urine” value was “√”.
On to `CC(=O)OC1C2C(OC(=O)Cc3ccccc3)C(C)CC2(OC(C)=O)C(=O)C(C)=CC2C(CCC13CO3)C2(C)C` (stereo not drawn) [Compound M0, Euphorbiasteroid], for which the IC50 in data set [2] (72 h) is 97.7 ± 2.13 µM; in data set [3] (HK-2, 72 h), more than 100 µM; in data set [4] (72 h), 55 ± 1.2 µM; in data set [6] (L02, 72 h), more than 100 µM.
